According to ChEMBL document CHEMBL4477195, “Bridged Epipolythiodiketopiperazines from Penicillium raciborskii, an Endophytic Fungus of Rhododendron tomentosum Harmaja” (2016):
Calls of active or inactive are those of the source. No cut-off for these calls is given here.

Key:
Fusarium oxysporum [1] = test: Antifungal activity against Fusarium oxysporum assessed as fungal growth inhibition at 0.38 mM incubated in dark for 48 hrs by microspectrophotometric analysis; assay type: functional, organism-based
Botrytis cinerea [2] = test: Antifungal activity against Botrytis cinerea assessed as fungal growth inhibition at 0.76 mM incubated in dark for 48 hrs by microspectrophotometric analysis; assay type: functional, organism-based
Fusarium oxysporum [3] = test: Antifungal activity against Fusarium oxysporum assessed as fungal growth inhibition at 0.76 mM incubated in dark for 48 hrs by microspectrophotometric analysis; assay type: functional, organism-based
Botrytis cinerea [4] = test: Antifungal activity against Botrytis cinerea assessed as fungal growth inhibition at 0.38 mM incubated in dark for 48 hrs by microspectrophotometric analysis; assay type: functional, organism-based
Verticillium dahliae [5] = test: Antifungal activity against Verticillium dahliae assessed as fungal growth inhibition at 0.38 mM incubated in dark for 48 hrs by microspectrophotometric analysis; assay type: functional, organism-based
Verticillium dahliae [6] = test: Antifungal activity against Verticillium dahliae assessed as fungal growth inhibition at 0.76 mM incubated in dark for 48 hrs by microspectrophotometric analysis; assay type: functional, organism-based
Botrytis cinerea [7] = test: Antifungal activity against Botrytis cinerea assessed as fungal growth inhibition at 10 to 400 ug/mL incubated in dark for 48 hrs by microspectrophotometric analysis; assay type: functional
Verticillium dahliae [8] = test: Antifungal activity against Verticillium dahliae assessed as fungal growth inhibition at 10 to 400 ug/mL incubated in dark for 48 hrs by microspectrophotometric analysis; assay type: functional

With COc1ccc(C2SSS[C@@]34C[C@]5(O)[C@H](O)C=C[C@@H](O)[C@@H]5ON3C(=O)[C@@H]2N(C)C4=O)c(O)c1OC (stereo partly drawn) the “growth inhibition (GI)” value (Fusarium oxysporum [1]) was “Active”, the “growth inhibition (GI)” value (Botrytis cinerea [2]) was “Active” and the “growth inhibition (GI)” value (Fusarium oxysporum [3]) was “Active”. The “growth inhibition (GI)” value (Botrytis cinerea [4]) was “Active”, the “growth inhibition (GI)” value (Verticillium dahliae [5]) was “Active” and the “growth inhibition (GI)” value (Verticillium dahliae [6]) was “Active”. For the same molecule, the “growth inhibition (GI)” value (Botrytis cinerea [7]) was 57% and the “growth inhibition (GI)” value (Verticillium dahliae [8]) was 45%.
